As usually defined, the solubility is the concentration that dissolves in the medium under given conditions. As a reminder, the IC50 is the concentration that gives 50% inhibition.

Converted amounts (≈) assume the structure as drawn.

Sequence of Serine/threonine-protein kinase PLK1 (P53350 whole entry): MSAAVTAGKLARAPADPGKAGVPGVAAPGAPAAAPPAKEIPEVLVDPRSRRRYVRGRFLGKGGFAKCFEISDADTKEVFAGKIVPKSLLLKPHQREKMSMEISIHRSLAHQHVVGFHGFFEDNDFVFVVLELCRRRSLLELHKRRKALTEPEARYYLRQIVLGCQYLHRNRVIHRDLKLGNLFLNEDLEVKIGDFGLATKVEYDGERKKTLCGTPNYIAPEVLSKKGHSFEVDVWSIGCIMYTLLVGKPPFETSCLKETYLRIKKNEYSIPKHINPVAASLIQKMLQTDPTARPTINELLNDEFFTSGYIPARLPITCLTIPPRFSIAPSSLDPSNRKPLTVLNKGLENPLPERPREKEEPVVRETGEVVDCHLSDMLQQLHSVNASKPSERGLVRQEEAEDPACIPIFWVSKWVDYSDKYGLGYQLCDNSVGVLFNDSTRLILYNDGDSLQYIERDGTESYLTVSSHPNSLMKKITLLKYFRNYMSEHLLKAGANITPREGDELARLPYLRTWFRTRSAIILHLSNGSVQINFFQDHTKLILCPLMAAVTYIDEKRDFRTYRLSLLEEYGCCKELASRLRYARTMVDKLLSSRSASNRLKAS

Tested on in the first data set: not listed separately
The data set is described as follows: Solubility of the compound at pH 7. The format is physicochemical. As to conditions: buffer.
As for `CCc1cccc(CC)c1NC(=O)c1nn(C)c2c1CCc1cnc(Nc3ccc(C(=O)N4CCC(N(C)C)CC4)cc3OC(F)(F)F)nc1-2`, the solubility came to 70 µM (≈ 48.4 µg/mL).

`CCc1cccc(CC)c1NC(=O)c1nn(C)c2c1CCc1cnc(Nc3ccc(C(=O)N4CCCN(C)CC4)cc3OC)nc1-2` showed a solubility of 59 µM (≈ 36.7 µg/mL).

`CCc1cccc(CC)c1NC(=O)c1nn(C)c2c1CCc1cnc(Nc3ccccc3OC)nc1-2`: the solubility was below 1 µM.

`CCc1cccc(CC)c1NC(=O)c1nn(C)c2c1CCc1cnc(Nc3ccccc3OC(F)(F)F)nc1-2` showed a solubility below 1 µM.

As to `CCc1cccc(CC)c1NC(=O)c1nn(C)c2c1CCc1cnc(Nc3ccc(C(N)=O)cc3OC)nc1-2`, the solubility was below 1 µM.

With `CCc1cccc(CC)c1NC(=O)c1nn(C)c2c1CCc1cnc(Nc3ccc(C(N)=O)cc3OC(F)(F)F)nc1-2`, the concentration in solution (solubility) came to 1 µM (≈ 0.58 µg/mL). This counts as single-digit micromolar.

The next data set relates to A2780. Nature of the data set: Antiproliferative activity in human A2780 cells after 72 hrs by CellTiter-Glo assay. In kind it is functional, cell-based. The settings on record: A2780, 72 h. On the technique in general: In ATP-based viability assays light output follows the ATP content of the culture.
Consider `CCc1cccc(CC)c1NC(=O)c1nn(C)c2c1CCc1cnc(Nc3ccc(C(=O)N4CCC(N(C)C)CC4)cc3OC(F)(F)F)nc1-2`, for which 485 nM corresponded to half-maximal inhibition (IC50).

Compound `CCc1cccc(CC)c1NC(=O)c1nn(C)c2c1CCc1cnc(Nc3ccc(C(=O)N4CCCN(C)CC4)cc3OC)nc1-2` displayed an IC50 below 16 nM.

Turning to `CCc1cccc(CC)c1NC(=O)c1nn(C)c2c1CCc1cnc(Nc3ccccc3OC)nc1-2`, the IC50 amounted to 541 nM.

`CCc1cccc(CC)c1NC(=O)c1nn(C)c2c1CCc1cnc(Nc3ccccc3OC(F)(F)F)nc1-2` registered an IC50 of 2860 nM.

Regarding `CCc1cccc(CC)c1NC(=O)c1nn(C)c2c1CCc1cnc(Nc3ccc(C(N)=O)cc3OC)nc1-2`, the half-inhibitory concentration (IC50) was found to be 135 nM.

With `CCc1cccc(CC)c1NC(=O)c1nn(C)c2c1CCc1cnc(Nc3ccc(C(N)=O)cc3OC(F)(F)F)nc1-2`, the IC50 turned out to be 298 nM.

For a further data set, the system named is U2OS. Nature of the data set: Inhibition of mitosis in human U2OS cells assessed as histone H3 phosphorylation at Ser 10 residue after 2 hrs by immunoassay. The format is functional, cell-based.
Settings: not given
As for `CCc1cccc(CC)c1NC(=O)c1nn(C)c2c1CCc1cnc(Nc3ccc(C(=O)N4CCC(N(C)C)CC4)cc3OC(F)(F)F)nc1-2`, the IC50 stood at 40 nM.

In the case of `CCc1cccc(CC)c1NC(=O)c1nn(C)c2c1CCc1cnc(Nc3ccc(C(=O)N4CCCN(C)CC4)cc3OC)nc1-2`, the IC50 amounted to 2 nM.

As for `CCc1cccc(CC)c1NC(=O)c1nn(C)c2c1CCc1cnc(Nc3ccc(C(N)=O)cc3OC)nc1-2`, the IC50 stood at 4 nM.

Take `CCc1cccc(CC)c1NC(=O)c1nn(C)c2c1CCc1cnc(Nc3ccc(C(N)=O)cc3OC(F)(F)F)nc1-2`: the concentration for half-maximal inhibition (IC50) came out at 160 nM.

The next data set concerns the target Serine/threonine-protein kinase PLK1 (Homo sapiens, UniProt P53350). The data set is described as follows: Inhibition of PLK1 assessed as [33P]-gamma-ATP incorporation into substrate by gamma counting.
Settings: not given
Take `CCc1cccc(CC)c1NC(=O)c1nn(C)c2c1CCc1cnc(Nc3ccc(C(=O)N4CCC(N(C)C)CC4)cc3OC(F)(F)F)nc1-2`: the IC50 is above 10000 nM.

Turning to `CCc1cccc(CC)c1NC(=O)c1nn(C)c2c1CCc1cnc(Nc3ccc(C(=O)N4CCCN(C)CC4)cc3OC)nc1-2`, the IC50 is above 10000 nM.

For `CCc1cccc(CC)c1NC(=O)c1nn(C)c2c1CCc1cnc(Nc3ccccc3OC)nc1-2`, the IC50 is above 10000 nM.

For `CCc1cccc(CC)c1NC(=O)c1nn(C)c2c1CCc1cnc(Nc3ccccc3OC(F)(F)F)nc1-2`, the IC50 is above 10000 nM.

Regarding `CCc1cccc(CC)c1NC(=O)c1nn(C)c2c1CCc1cnc(Nc3ccc(C(N)=O)cc3OC)nc1-2`, the IC50 worked out at 3030 nM.

For the compound `CCc1cccc(CC)c1NC(=O)c1nn(C)c2c1CCc1cnc(Nc3ccc(C(N)=O)cc3OC(F)(F)F)nc1-2`, the IC50 is above 10000 nM.

For the next data set, the target named is T1, Dual specificity protein kinase TTK (Homo sapiens, UniProt P33981).
T1 sequence (P33981 whole entry): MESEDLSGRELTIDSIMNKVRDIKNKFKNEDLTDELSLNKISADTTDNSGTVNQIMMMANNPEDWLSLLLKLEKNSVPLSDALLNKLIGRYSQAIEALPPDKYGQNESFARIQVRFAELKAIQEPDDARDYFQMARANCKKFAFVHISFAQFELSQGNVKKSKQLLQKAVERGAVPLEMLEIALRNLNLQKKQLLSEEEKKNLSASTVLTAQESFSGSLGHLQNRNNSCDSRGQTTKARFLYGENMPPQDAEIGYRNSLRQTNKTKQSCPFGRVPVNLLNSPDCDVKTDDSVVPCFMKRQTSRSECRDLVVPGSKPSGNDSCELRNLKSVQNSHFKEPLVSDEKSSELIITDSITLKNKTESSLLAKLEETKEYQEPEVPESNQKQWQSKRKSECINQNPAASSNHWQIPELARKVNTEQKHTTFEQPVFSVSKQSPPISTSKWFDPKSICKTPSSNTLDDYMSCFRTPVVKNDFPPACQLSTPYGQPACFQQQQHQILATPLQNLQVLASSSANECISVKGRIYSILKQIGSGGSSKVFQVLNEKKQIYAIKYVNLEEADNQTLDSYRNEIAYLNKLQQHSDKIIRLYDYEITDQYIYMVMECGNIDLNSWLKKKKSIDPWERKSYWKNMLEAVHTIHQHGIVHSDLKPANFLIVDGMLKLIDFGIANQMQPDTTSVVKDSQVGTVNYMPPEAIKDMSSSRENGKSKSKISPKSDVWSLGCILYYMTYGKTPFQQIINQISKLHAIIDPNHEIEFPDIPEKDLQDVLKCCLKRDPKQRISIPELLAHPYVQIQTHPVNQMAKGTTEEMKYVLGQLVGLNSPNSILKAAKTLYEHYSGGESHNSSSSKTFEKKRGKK
The data set is described as follows: Inhibition of MPS1 assessed as [33P]-gamma-ATP incorporation into substrate P38-betatide by gamma counting.
Settings: not given
For `CCc1cccc(CC)c1NC(=O)c1nn(C)c2c1CCc1cnc(Nc3ccc(C(=O)N4CCC(N(C)C)CC4)cc3OC(F)(F)F)nc1-2`, the IC50 came to 206 nM.

Consider `CCc1cccc(CC)c1NC(=O)c1nn(C)c2c1CCc1cnc(Nc3ccc(C(=O)N4CCCN(C)CC4)cc3OC)nc1-2`, for which the IC50 was 21 nM.

`CCc1cccc(CC)c1NC(=O)c1nn(C)c2c1CCc1cnc(Nc3ccccc3OC)nc1-2`: the IC50 was found to be 525 nM.

Consider `CCc1cccc(CC)c1NC(=O)c1nn(C)c2c1CCc1cnc(Nc3ccccc3OC(F)(F)F)nc1-2`, for which the IC50 is 823 nM.

With `CCc1cccc(CC)c1NC(=O)c1nn(C)c2c1CCc1cnc(Nc3ccc(C(N)=O)cc3OC)nc1-2`, the IC50 worked out at 36 nM.

`CCc1cccc(CC)c1NC(=O)c1nn(C)c2c1CCc1cnc(Nc3ccc(C(N)=O)cc3OC(F)(F)F)nc1-2`: the IC50 stood at 140 nM.

Another data set concerns the target Cyclin-dependent kinase 2/cyclin A (Homo sapiens, UniProt P24941). The data set is described as follows: Inhibition of CDK2/Cyclin A assessed as [33P]-gamma-ATP incorporation into substrate by gamma counting. The format is protein-complex assay.
Settings: not given
Regarding `CCc1cccc(CC)c1NC(=O)c1nn(C)c2c1CCc1cnc(Nc3ccc(C(=O)N4CCC(N(C)C)CC4)cc3OC(F)(F)F)nc1-2`, the IC50 is above 10000 nM.

With `CCc1cccc(CC)c1NC(=O)c1nn(C)c2c1CCc1cnc(Nc3ccc(C(=O)N4CCCN(C)CC4)cc3OC)nc1-2`, the IC50 worked out at 3620 nM.

For `CCc1cccc(CC)c1NC(=O)c1nn(C)c2c1CCc1cnc(Nc3ccccc3OC)nc1-2`, the IC50 is above 10000 nM.

For `CCc1cccc(CC)c1NC(=O)c1nn(C)c2c1CCc1cnc(Nc3ccccc3OC(F)(F)F)nc1-2`, the IC50 is above 10000 nM.

With `CCc1cccc(CC)c1NC(=O)c1nn(C)c2c1CCc1cnc(Nc3ccc(C(N)=O)cc3OC)nc1-2`, the IC50 came to 5570 nM.

`CCc1cccc(CC)c1NC(=O)c1nn(C)c2c1CCc1cnc(Nc3ccc(C(N)=O)cc3OC(F)(F)F)nc1-2`: the IC50 is above 10000 nM.

For the next data set, the target named is T2, Aurora kinase A (Homo sapiens, UniProt O14965).
T2 sequence (O14965 whole entry): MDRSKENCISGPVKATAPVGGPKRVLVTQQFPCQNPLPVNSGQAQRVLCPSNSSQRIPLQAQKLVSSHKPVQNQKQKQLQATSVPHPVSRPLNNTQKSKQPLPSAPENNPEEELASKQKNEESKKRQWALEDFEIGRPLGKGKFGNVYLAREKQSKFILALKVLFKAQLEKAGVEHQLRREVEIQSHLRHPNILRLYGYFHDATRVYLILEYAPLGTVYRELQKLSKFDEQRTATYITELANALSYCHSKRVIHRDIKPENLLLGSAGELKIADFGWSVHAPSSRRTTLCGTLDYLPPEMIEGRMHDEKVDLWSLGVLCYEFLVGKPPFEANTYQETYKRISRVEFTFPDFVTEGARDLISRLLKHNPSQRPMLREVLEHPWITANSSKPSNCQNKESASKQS
Nature of the data set: Inhibition of Aur-A assessed as [33P]-gamma-ATP incorporation into substrate by gamma counting.
Settings: not given
For the compound `CCc1cccc(CC)c1NC(=O)c1nn(C)c2c1CCc1cnc(Nc3ccc(C(=O)N4CCC(N(C)C)CC4)cc3OC(F)(F)F)nc1-2`, the IC50 is above 10000 nM.

For the compound `CCc1cccc(CC)c1NC(=O)c1nn(C)c2c1CCc1cnc(Nc3ccc(C(=O)N4CCCN(C)CC4)cc3OC)nc1-2`, the IC50 is 372 nM.

In the case of `CCc1cccc(CC)c1NC(=O)c1nn(C)c2c1CCc1cnc(Nc3ccccc3OC)nc1-2`, the IC50 was determined as 3170 nM.

On to `CCc1cccc(CC)c1NC(=O)c1nn(C)c2c1CCc1cnc(Nc3ccccc3OC(F)(F)F)nc1-2`, for which the IC50 is above 10000 nM.

On to `CCc1cccc(CC)c1NC(=O)c1nn(C)c2c1CCc1cnc(Nc3ccc(C(N)=O)cc3OC)nc1-2`, for which the IC50 is 768 nM.

In the case of `CCc1cccc(CC)c1NC(=O)c1nn(C)c2c1CCc1cnc(Nc3ccc(C(N)=O)cc3OC(F)(F)F)nc1-2`, the IC50 was above 10000 nM.
